A short description of data set [1]: Bioavailability in vivo in rats: lithium in plasma and brain by ICP-OES after oral administration. To be noted: for BRAIN CONC., Time(h) 2.00 / PLASMA CONC, Time(h) 2.00: 2 h; for BRAIN CONC., Time(h) 2.00 / BRAIN CONC., Time(h) 24.00 / BRAIN CONC., Time(h) 48.00 / BRAIN CONC., Time(h) 72.00: lithium in brain; for BRAIN CONC., Time(h) 2.00 / PLASMA CONC, Time(h) 2.00 / BRAIN CONC., Time(h) 24.00 / PLASMA CONC, Time(h) 24.00 / BRAIN CONC., Time(h) 48.00 / PLASMA CONC, Time(h) 48.00 / BRAIN CONC., Time(h) 72.00 / PLASMA CONC, Time(h) 72.00: individual rats (three per time); for PLASMA CONC, Time(h) 2.00 / PLASMA CONC, Time(h) 24.00 / PLASMA CONC, Time(h) 48.00 / PLASMA CONC, Time(h) 72.00: lithium in plasma; for BRAIN CONC., Time(h) 24.00 / PLASMA CONC, Time(h) 24.00: 24 h; for BRAIN CONC., Time(h) 48.00 / PLASMA CONC, Time(h) 48.00: 48 h; for BRAIN CONC., Time(h) 72.00 / PLASMA CONC, Time(h) 72.00: 72 h. The method, then:
Male Sprague-Dawley rats, weighing 240-290 g, were treated through gastric intubation with formulations of lithium and compared with lithium carbonate as a reference. For each formulation a group of 12 rats was treated. 4 mEq/kg of lithium were orally administered, after suspension in 2 mL of corn seeds oil (“Olio Cuore”).
Four intervals' post-administration time (2, 24, 48 and 72 hours) were considered and three rats for each of them, employing the protocol used by Zaworotko and coworkers (Smith et al., Mol. Pharmaceutics 2013, 10, 4728-4738). At each time interval blood samples were collected through intra-cardiac […], these were treated with 50 μL of sodium heparin and centrifuged for 10 min at 1600 rpm. Plasma samples of approximately […] each were thus obtained. The brain was explanted in toto with perfusion with phosphate buffered saline (PBS) in order to preserve it in a viable state. The plasma and brain samples were immediately frozen at a temperature of −80° C., after measuring the weight of the brains.
In order to determine the concentration of the lithium by means of the ICP-OES (Inductively Coupled Plasma Optical Emission Spectometry) analysis, plasma and brain samples were purified and mineralized, respectively to obtain solutions suitable for analysis.
A 0.5 mL aliquot was taken from each sample, to which were added equal amounts of MilliQ water and concentrated nitric acid, in order to bring the lithium ion in solution in the form of LiNO3 and to obtain the precipitation of the proteins. At this point, each sample was sonicated for 10 min in an ultrasonic bath and diluted to a volume of 5.0 mL.
All samples were subjected to centrifugation for a period of 40 min, at a rotational speed of 6000 rpm, to obtain complete plasma proteins/solution separation. At the end supernatant liquid containing lithium was diluted to a final volume of 15 mL by adding MilliQ water. The obtained solutions were stored at a temperature of 4° C. until analysis.
The purpose of this phase was to obtain liquid samples, suitable to ICP-OES analysis, containing lithium in solution, starting from the solid organic tissue of the brain. The mineralization process allows the complete degradation of organic substances until the total transformation into simple inorganic substances.
The first operation performed was that the drying of the fabric, obtained through the use of a digester open PerkinElmer SPB 100-12: each sample of brain has been inserted in special containers Digitube™ 100 mL and maintained at a temperature of 80° C. for 120 min.
The second step involved the mineralization true and proper brain: each sample were added to 10 mL of concentrated nitric acid and 1.0 mL of hydrogen peroxide, then the system was brought to a temperature of 120° C. for 120 min. until the complete mineralization. With this procedure you get the desired biological degradation of organic compounds and the consequent passage of lithium in solution. The solutions thus obtained were collected, brought to a final volume of 20 mL with MilliQ water and preserved at a temperature of 4° C. until time of analysis.
In order to obtain the determination of lithium ion concentrations in the samples previously prepared, optical emission spectrometry inductively coupled plasma ICP-OES was used (PerkinElmer Optima 8000 spectrometer).
The analysis was conducted at the fixed wavelength of lithium (λ=670.784 nm) and the intensity of the radiation emitted by each sample was measured and compared standard solutions.
Plasma and brain concentration data were processed using a non-compartmental approach using WinNonlin® software (Pharsight Corporation, USA) and Microsoft Excel XP (Microsoft Corporation, […]).

A short description of data set [2]: Stability of crystalline material under warm humid conditions (40° C., 75% relative humidity), PXRD before and after. Type of data set: physicochemical. Particulars: stored at 40° C., 75% relative humidity; stable = retained crystal form for at least two weeks by PXRD. The method, then: The stability of these compounds under warm humid conditions was assessed as follows:
The crystalline material was stored at 40° C. in an atmosphere of 75% relative humidity.
Compounds were classed as stable if they retained their crystal form for at least two weeks as verified by examination of PXRD patterns collected before and after exposure to humidity.
It can be seen that the pattern obtained after 2 months at 75% relative humidity and 40° C. (upper trace) in this case is different.

Where [3] appears, read: rat brain, 4 mEq/kg lithium oral, non-compartmental.
[4] abbreviates: rat brain, 4 mEq/kg lithium oral, terminal phase.
[5] abbreviates: rat brain, 4 mEq/kg lithium oral, time 0 to last quantifiable point.
[6] abbreviates: rat brain, relative to lithium carbonate.
The mark [7] stands for this setting: rat plasma, 4 mEq/kg lithium oral, non-compartmental.
Where [8] appears, read: rat plasma, 4 mEq/kg lithium oral, terminal phase.
The mark [9] stands for this setting: rat plasma, relative to lithium carbonate.

Values joined by “and” are separate entries in the source; they are usually repeats but may differ in a detail not shown here. Identical values can stand only once.

As usually defined, the AUC(0-t) is the area under the concentration-time curve up to a stated or last time point. Higher therefore signals high exposure. Consider `NC(=O)c1ccncc1.NC(=O)c1ccncc1.O=C([O-])/C=C/C(=O)[O-].[Li+].[Li+]` [Compound 2, [Li2(fumarate)(isonicotinamide)2]n], for which the “AUC (Cerebral)/AUC (Plasma)” value in data set [1] (rat, in vivo) was determined as 1.208. For the same molecule, in data set [1] (rat, in vivo, po), the AUC(0-t) amounted to 147 µg·h/mL, the AUClast (brain) came to 0.177 mg·h/g, the “Cmax (brain)” value worked out at 4.0200 µg/g and the “Cmax (plasma)” value came to 3976.7 ng/mL. In addition, in data set [1] (rat, in vivo, po), the “Relative Brain BA (UL crystal forms, oral vs Li2CO3, oral)” value (“Relative Brain BA” below) amounted to 76.37%; the “Relative Plasma BA (UL crystal forms, oral vs Li2CO3 oral)” value (“Relative Plasma BA” for short) stood at 54.52%; the “Tmax (brain)” value is 24 h; the “Tmax (plasma)” value is on record as 24 h. For the same molecule, in data set [1] (rat, in vivo, po), the “t½_Lambda_z (brain)” value amounted to 16.7775 h and the “t½_Lambda_z (plasma)” value was 14.0638 h. In addition, the “Stable?” value in data set [2] is given as “Yes”.
For `COc1ccc(C(=O)[O-])cc1.O=C(O)[C@@H]1CCCN1.[Li+]` [Compound 5, [Li(4-methoxybenzoate)(L-proline)]n], in data set [1] (setting [3]), the “Cmax (brain)” value worked out at 4.9833 µg/g and the “Tmax (brain)” value was determined as 48 h. The “t½_Lambda_z (brain)” value in data set [1] (setting [4]) was determined as 13.4751 h. Besides, the “AUClast (brain)” value in data set [1] (setting [5]) was determined as 229.3867 mg·h/g. In data set [1] (rat brain, after 48 hours, FIG. 12), the “concentration of lithium in the brain compared with lithium carbonate” value is given as “higher”. Besides, the “Relative Brain BA” value in data set [1] (setting [6]) stood at 98.70%. For the same molecule, in data set [1] (setting [7]), the “Cmax (plasma)” value is 6080 ng/mL and the “Tmax (plasma)” value stood at 24 h. In addition, the “t½_Lambda_z (plasma)” value in data set [1] (setting [8]) is recorded as 16.5057 h. Also, the “Relative Plasma BA” value in data set [1] (setting [9]) was determined as 90.41%. In data set [1] (rat, 4 mEq/kg lithium oral), the “BRAIN CONC., Time(h) 2.00” value was 0.23 µg/g and 0.48 µg/g and 0.46 µg/g; the “PLASMA CONC, Time(h) 2.00” value was 2820 ng/mL and 4020 ng/mL and 2650 ng/mL; the “BRAIN CONC., Time(h) 24.00” value is 4.44 µg/g and 4.46 µg/g and 2.54 µg/g; the “PLASMA CONC, Time(h) 24.00” value was 7150 ng/mL and 6800 ng/mL and 4290 ng/mL. For the same molecule, in data set [1] (rat, 4 mEq/kg lithium oral), the “BRAIN CONC., Time(h) 48.00” value was 4.42 µg/g and 4.76 µg/g and 5.77 µg/g; the “PLASMA CONC, Time(h) 48.00” value is 1450 ng/mL and 1910 ng/mL and 3650 ng/mL; the “BRAIN CONC., Time(h) 72.00” value is 1.08 µg/g and 0.43 µg/g and 2.84 µg/g; the “PLASMA CONC, Time(h) 72.00” value was 630 ng/mL and 480 ng/mL and 1320 ng/mL. Also, in data set [2], the “Stable?” value is “Yes”.
Take `COc1cccc(C(=O)[O-])c1.O=C(O)[C@@H]1CCCN1.[Li+]` [Compound 6, [Li(3-methoxybenzoate)(L-proline)]n]: in data set [1] (setting [3]), the “Cmax (brain)” value worked out at 4.3733 µg/g and the “Tmax (brain)” value stood at 24 h. The “t½_Lambda_z (brain)” value in data set [1] (setting [4]) is reported as 15.3888 h. Also, the “AUClast (brain)” value in data set [1] (setting [5]) came to 172.7467 mg·h/g. The “Relative Brain BA” value in data set [1] (setting [6]) is recorded as 74.33%. Further, in data set [1] (setting [7]), the “Cmax (plasma)” value was 6383.3 ng/mL and the “Tmax (plasma)” value is reported as 24 h. Moreover, the “t½_Lambda_z (plasma)” value in data set [1] (setting [8]) turned out to be 10.4363 h. Besides, the “Relative Plasma BA” value in data set [1] (setting [9]) stood at 74.07%. Besides, in data set [1] (rat, 4 mEq/kg lithium oral), the “BRAIN CONC., Time(h) 2.00” value is 0.64 µg/g and 0.44 µg/g and 0.73 µg/g; the “PLASMA CONC, Time(h) 2.00” value was 3030 ng/mL and 1430 ng/mL and 3380 ng/mL; the “BRAIN CONC., Time(h) 24.00” value was 4.54 µg/g and 4.21 µg/g and 4.37 µg/g; the “PLASMA CONC, Time(h) 24.00” value is 5950 ng/mL and 4760 ng/mL and 8440 ng/mL. For the same molecule, in data set [1] (rat, 4 mEq/kg lithium oral), the “BRAIN CONC., Time(h) 48.00” value was 2.84 µg/g and 2.06 µg/g and 2.46 µg/g; the “PLASMA CONC, Time(h) 48.00” value is 670 ng/mL and 740 ng/mL and 870 ng/mL; the “BRAIN CONC., Time(h) 72.00” value is 0.59 µg/g and 0.49 µg/g and 0.43 µg/g; the “PLASMA CONC, Time(h) 72.00” value is 230 ng/mL and 310 ng/mL and 250 ng/mL. Moreover, the “Stable?” value in data set [2] is “Yes”.
For the molecule `NC(=O)c1ccncc1.NC(=O)c1ccncc1.O=C([O-])CCC(=O)[O-].[Li+].[Li+]` [Compound 7, [Li2(succinate) (isonicotinamide)2]n], the “AUC (Cerebral)/AUC (Plasma)” value in data set [1] (rat, in vivo) was determined as 1.077. In data set [1] (rat, in vivo, po), the AUC(0-t) was found to be 197 µg·h/mL, the “AUClast (brain)” value worked out at 211.7400 mg·h/g, the “Cmax (brain)” value was 5.1533 µg/g and the “Cmax (plasma)” value stood at 4140 ng/mL. In data set [1] (rat, in vivo, po), the “Relative Brain BA” value worked out at 91.11%; the “Relative Plasma BA” value is 72.96%; the “Tmax (brain)” value came out at 48 h; the “Tmax (plasma)” value is 24 h. Besides, in data set [1] (rat, in vivo, po), the “t½_Lambda_z (brain)” value turned out to be 7.7957 h and the “t½_Lambda_z (plasma)” value is on record as 15.0424 h. Also, in data set [2], the “Stable?” value is reported as “Yes”.

Source of the values: patent US12234248B2, “Co-crystal compounds comprising lithium ions and isonicotinamide” (UNIVERSITY OF LIMERICK, priority 2017, dated 2025).
